Assay results: patent US10292960B2, “Anticancer agent comprising aminoacetonitrile compound as active ingredient” (PITNEY PHARMACEUTICALS PTY LIMITED, priority 2013, dated 2019)

Key:
[1] = tested on: HOSE cell (normal ovary cell line); assay: Cell growth inhibitory activity against HOSE cell (comparison target); type: cell-based; conditions: cultured 72 hr, sulforhodamine B
Protocol: (§1) A cell suspension of oophoroma cell line (A2780) prepared to 2 to 3×10^3/well was added to a well microplate, a given amount of a test substance (0, 1.25, 2.5, 5, 10, 12.5, 20, 25, 50, 100 μM) was added to the culture medium, and the mixture was cultured for 72 hr. Thereafter, 0.4% sulforhodamine B was added to each well, and the absorbance at 570 nm was measured by a microplate reader. The cell growth inhibition ratio was calculated from the above-mentioned formula, and IC50 value was determined from the data. The same test was performed using HOSE cell (normal ovary cell line) as a comparison target instead of A2780 cell, and IC50 value was determined.

[2] = tested on: oophoroma cell line (A2780); assay: Test for cell growth inhibitory activity against A2780 (epithelial ovarian cancer); type: cell-based; conditions: cultured 72 hr, sulforhodamine B
Protocol: An experiment was performed according to the method described in Ahmed SA et al., 1994. Journal of Immunological Methods 170: 211-224, or Boyed M R et al., 1989.
as §1

Structure (SMILES)	IC50 [2] [µM]	IC50 [1] [µM]
CC(C#N)(COc1ccc(C(F)(F)F)cc1)NC(=O)c1ccc(C(F)(F)C(F)(F)F)cc1 (racemic) [1-10]	10.3	49.4
CC(C#N)(COc1ccc(C#Cc2ccccc2)cc1)NC(=O)c1ccc(C(F)(F)F)cc1 (racemic) [1-25]	4.53	15.3
CC(C#N)(COc1ccc(C(F)(F)F)cc1)NC(=O)c1cccc(OC(F)(F)F)c1 (racemic) [1-29]	13.3	–
Cn1nc(C(F)(F)F)cc1C(=O)NC(C)(C#N)COc1ccc(Cl)cc1 (racemic) [1-39]	6.97	–
CC(C)(C)C(C#N)(COc1ccc(C(F)(F)F)cc1)NC(=O)c1ccc(Cl)cc1Cl (racemic) [1-56]	11.4	–

Now from value to compound, other results behind:

IC50 [2] [µM]	Structure (SMILES)	IC50 [1] [µM]
8.81	CC(C)C(C#N)(COc1ccc(Cl)cc1)NC(=O)Cc1cccc(Cl)c1 (stereo not drawn) [2-27]	15.8
3.77	CC(C#N)(COc1ccc(C(F)(F)F)cc1)NC(=O)Cc1ccc(C(F)(F)C(F)(F)C(F)(F)F)cc1 (stereo not drawn) [2-109]	–
3.53	CC(C#N)(COc1ccc(Cl)cc1)NC(=O)Cc1ccc(SC(F)(F)C(F)(F)C(F)(F)F)cc1 (stereo not drawn) [2-114]	19.9
6.2	CC(C)(C)C#Cc1ccc(OCC(C)(C#N)NC(=O)Cc2ccc(C(F)(F)F)cc2)cc1 (stereo not drawn) [2-120]	10.4
7.22	CCCCCCCCOCC(C)(C#N)NC(=O)Cc1ccc(C(F)(F)F)cc1 (stereo not drawn) [4-1]	–
